{
  "source": "patent US20160067301A1",
  "about": "“ANTAGONISM OF ABCG4, LYN KINASE, AND C-CBL E3 LIGASE TO INCREASE PLATELET COUNT AS THERAPY FOR THROMBOCYTOPENIA” (The Trustees of Columbia University in the City of New York, priority 2013, published 2016)",
  "key": {"[1]": {"system": "cell surface c-MPL on MkPs", "test": "Cell surface c-MPL expression on MkPs by flow cytometry", "type": "cell-based, mouse", "details": "for cell surface c-MPL levels in MkPs: bone marrow progenitor cells from WT or Abcg4−/− mice, TPO 10 ng/ml, 2 hrs, Tolimidone 10 μM, CRIN-1 1 μM (FIG. 18)", "procedure": "After harvesting bone marrow progenitor cells, RBCs were lysed, and the cells were resuspended in FACS buffer, Bone marrow cells were stained for MkPs as stated above, and c-MPL or isotype control antibodies were included. Cells were then washed and stained with a fluorescently conjugated secondary rabbit-specific antibody to detect the antibody to c-MPL for a further 30 min on ice. Following this, the cells were washed, resuspended in FACS buffer and run on an LSRII flow cytometer. MEPs were identified as Lin^−c-Kit^+CD16/CD32^loCD34^loCD41^−, and MkPs were identified as Lin^−c-Kit^+CD16/CD32^loCD34^loCD41^+."}, "[2]": {"system": "c-CBL phosphorylation in MkPs", "test": "c-CBL tyrosine phosphorylation in MkPs in response to TPO (phospho-flow cytometry)", "type": "cell-based, mouse", "details": "for c-CBL phosphorylation: 5 min TPO, CD 3 mM or CD-chol 30 min, rHDL 20 μg apoA-I ml-1 2 h, SU6656 10 μg ml-1 2 h", "procedure": "Bone marrow progenitor cells were stimulated with TPO at the indicated concentration for the specified period of time at 37° C. and then immediately diluted with ice-cold buffer and placed on ice to prevent further changes in phosphorylation. Cells were then centrifuged at 800 g for 2 min, and the pellet was resuspended in BD fix buffer (BD Biosciences) for 10 min on ice. The cells were washed with BD flow cytometry staining buffer, centrifuged, and then resuspended in BD cytofix/perm buffer III for 20 min. After this, the cells were washed and resuspended in BD staining buffer and incubated with lineage (Sca1, CD127, CD45R, CD19, CD11b, CD3e, TER-119, CD2, CD8, CD4 and Ly-6G, all FITC; eBioscience) and progenitor cell markers (c-Kit, CD16/CD32 (FcγRII/III), CD34, CD41 and antibody to p-c-CBL (Tyr700 human, Tyr698 mouse; BD Biosciences)) or an isotype control for 30 min on ice. The cells were then washed, resuspended in FACS buffer and run on an LSRII. The amount of phosphorylated c-Cbl was normalized against that of isotype control staining."}, "[3]": {"system": "WT and Abcg4−/− mice", "test": "Platelet count after a single TPO injection in WT and Abcg4−/− mice", "type": "in vivo, mouse", "details": "for increase in the number of platelets: single dose TPO 50 μg per kg body weight (FIG. 2i)", "from_the_text": "The Institutional Animal Care and Use Committee of Columbia University approved all the mouse studies. Abcg4−/−, Abcg1−/− Abca1−/− and Abcg1−/− mice in a C57BL/6J background were created as described and used in this study. Abcg4−/− mice were backcrossed onto C57BL/6J mice for more than ten generations. WT (C57BL/6J) and Ldlr−/− (B6.129S7-Ld1rtm1Her) mice were obtained from The Jackson Laboratory (Bar Harbor, Me.). For bone marrow transplantation studies, bone marrow from WT, Abcg4−/−, Abcg1−/− Abca1−/− or Abcg1−/− mice was transplanted into WT or Ldlr−/− recipient mice as described. For atherosclerosis studies, bone marrow-transplanted recipient mice were fed a Western diet (TD88137, Harlan Teklad) for the indicated period of time. Bone marrow-specific retro-viral expression of murine c-MPL^W515L was established as described44 using WT C57BL/6J mice as the recipient and WT C57BL/6J or Abcg4−/− mice as the bone marrow donor. Where indicated, vehicle (saline), rHDL or TPO (R&D Systems) was injected at the indicted dose into the mice through the tail vein. rHDL (CSL-111) was provided by CSL Behring AG, Bern, Switzerland; CSL-111 is composed of human apoA-I and phosphatidylcholine from soy bean in a ratio of 1:150. […]\nComplete blood counts were quantified using whole blood collected from tail bleeding. A FORCYTE Veterinary Hematology Analyzer (Oxford Science, Inc.) was used for the analysis."}, "[4]": {"system": "bone marrow HSPCs", "test": "MK-CFU megakaryocyte colony-forming assay", "type": "cell-based, mouse", "details": "ABCG4-deficient cells (FIG. 13c)", "procedure": "Primary bone marrow HSPCs obtained by FACS were plated in methylcellulose-based medium (5,000 cells per assay) containing TPO (50 ng interleukin-6 (IL-6) (20 ng ml^−1) and IL-3 (10 ng ml^−1) and incubated for 8 d according to the manufacturer's protocol (Megacult-C, Stemcell Technologies). Cultures were fixed, and megakaryocyte colonies were visualized by staining for acetylcholinesterase activity. Nuclei were counterstained with Harris' hematoxylin. Colonies containing more than three megakaryocytes were scored as MK-CFUs."}, "[5]": {"system": "MkPs", "test": "MkP proliferation (EdU incorporation, flow cytometry)", "type": "cell-based, mouse", "details": "16 h with TPO"}, "[6]": {"details": "WT MkPs, with TPO 30 ng ml-1, CD 3 mM or CD-chol 30 min, rHDL 20 μg ml-1, MG132 10 μM 2 h, SU6656 10 μg ml-1 2 h"}, "[7]": {"details": "Abcg4−/− MkPs, with TPO 30 ng ml-1, CD 3 mM or CD-chol 30 min, rHDL 20 μg ml-1, SU6656 10 μg ml-1 2 h"}},
  "note": "Where a SMILES comes first, the peptide text is derived from it. The star is where a group is joined. Cbz = O=C(OCc1ccccc1)*",
  "data": [
    {"compound": "COc1c2c(cc3c1C(CN)N(C)CC3)OCO2", "note": "(stereo not shown) [CRIN-1]", "values": [
      {"measurement": "cell surface c-MPL levels in MkPs", "setting": "[1]", "value": "increases"}
    ]},
    {"compound": "CC(C)C[C@@H](C=O)NC(=O)[C@H](CC(C)C)NC(=O)[C@H](CC(C)C)NC(=O)OCc1ccccc1", "note": "[MG132] (Cbz-Leu-Leu-Leu-aldehyde)", "values": [
      {"measurement": "cell surface c-MPL expression", "setting": "[1]; [6]", "value": "increased c-MPL expression to a level similar to that in Abcg4−/− cells"}
    ]},
    {"compound": "CN(C)S(=O)(=O)c1ccc2c(c1)/C(=C/c1cc3c([nH]1)CCCC3)C(=O)N2", "note": "[SU6656]", "values": [
      {"measurement": "c-CBL phosphorylation", "setting": "[2]; Abcg4−/− MkPs", "value": "markedly decreased c-CBL phosphorylation"},
      {"measurement": "difference in response to TPO between WT and Abcg4−/− MkPs (c-CBL phosphorylation, c-MPL expression)", "setting": "[2]; SU6656 10 μg ml-1 for 2 h", "value": "abolished the difference in response to TPO"},
      {"measurement": "c-CBL phosphorylation", "setting": "[2]; WT MkPs", "value": "markedly decreased c-CBL phosphorylation"},
      {"measurement": "cell surface c-MPL expression", "setting": "[1]; [7]", "value": "increased cell surface expression of c-MPL"},
      {"measurement": "cell surface c-MPL expression", "setting": "[1]; [6]", "value": "increased cell surface expression of c-MPL"}
    ]},
    {"compound": "TPO: Thrombopoietin (R&D Systems), growth factor regulating megakaryocyte and platelet development", "values": [
      {"measurement": "increase of platelet count after single injection of TPO, compared with wild type", "setting": "[3]; Abcg4−/− mice (FIG. 17)", "value": "much more pronounced"},
      {"measurement": "increase in the number of platelets", "setting": "[3]; Abcg4−/− mice", "value": 2.1, "unit": "fold"},
      {"measurement": "increase in the number of platelets", "setting": "[3]; WT mice", "value": 1.4, "unit": "fold"},
      {"measurement": "platelet count after single injection of TPO", "setting": "[3]; wild type mice (FIG. 17)", "value": "induced increase of platelet count"}
    ]},
    {"compound": "Tolimidone", "values": [
      {"measurement": "cell surface c-MPL expression", "setting": "[1]; Abcg4−/− MkPs from hypercholesterolemic (WTD-fed) Ldlr−/− recipient mice, 10 μM, TPO, 2 h", "value": "reduced cell surface c-MPL expression"},
      {"measurement": "cell surface expression of c-MPL", "setting": "[1]; Abcg4−/− MkPs from normocholesterolemic mice (FIG. 14)", "value": "completely reversed the increased cell surface expression of c-MPL"},
      {"measurement": "cell surface c-MPL expression", "setting": "[1]; WT MkPs from hypercholesterolemic (WTD-fed) Ldlr−/− recipient mice, 10 μM, TPO, 2 h", "value": "reduced cell surface c-MPL expression"},
      {"measurement": "cell surface c-MPL levels in MkPs", "setting": "[1]", "value": "decreases"}
    ]},
    {"compound": "methyl-β-cyclodextrin", "values": [
      {"measurement": "c-CBL phosphorylation", "setting": "[2]; Abcg4−/− MkPs", "value": "increased c-CBL phosphorylation"},
      {"measurement": "c-CBL phosphorylation", "setting": "[2]; WT MkPs", "value": "increased c-CBL phosphorylation"},
      {"measurement": "number of megakaryocyte colonies", "setting": "[4]", "value": "reversed the increase in the number of magakaryecyte colonies"},
      {"measurement": "cell surface c-MPL expression", "setting": "[1]; [7]", "value": "significantly reduced to levels similar to those in cyclodextrin-treated WT MkPs"},
      {"measurement": "MkP proliferation (EdU incorporation)", "setting": "[5]; Abcg4−/− MkPs, CD 3 mM or CD-chol 30 min pretreatment, rHDL 20 μg ml-1 16 h", "value": "significantly reduced to levels similar to those in cyclodextrin-treated WT MkPs"},
      {"measurement": "MkP proliferation (EdU incorporation)", "setting": "[5]; Lyn−/− MkPs, cholesterol loading or depletion treatments", "value": "unresponsive"},
      {"measurement": "MkP proliferation (EdU incorporation)", "setting": "[5]; WT MkPs, CD 3 mM or CD-chol 30 min pretreatment, rHDL 20 μg ml-1 16 h", "value": "decreased the proliferation"}
    ]}
  ]
}
